The values that follow come from patent publication US12427144B2, “Compounds and methods for the targeted degradation of androgen receptor” (Arvinas Operations, Inc., priority 2019, dated 2025).

For this assay, the target named is T1, Androgen Receptor (AR) (Homo sapiens, UniProt P10275).
T1 construct: endogenous in cells; host or cells: VCaP
T1 sequence (P10275 1-920): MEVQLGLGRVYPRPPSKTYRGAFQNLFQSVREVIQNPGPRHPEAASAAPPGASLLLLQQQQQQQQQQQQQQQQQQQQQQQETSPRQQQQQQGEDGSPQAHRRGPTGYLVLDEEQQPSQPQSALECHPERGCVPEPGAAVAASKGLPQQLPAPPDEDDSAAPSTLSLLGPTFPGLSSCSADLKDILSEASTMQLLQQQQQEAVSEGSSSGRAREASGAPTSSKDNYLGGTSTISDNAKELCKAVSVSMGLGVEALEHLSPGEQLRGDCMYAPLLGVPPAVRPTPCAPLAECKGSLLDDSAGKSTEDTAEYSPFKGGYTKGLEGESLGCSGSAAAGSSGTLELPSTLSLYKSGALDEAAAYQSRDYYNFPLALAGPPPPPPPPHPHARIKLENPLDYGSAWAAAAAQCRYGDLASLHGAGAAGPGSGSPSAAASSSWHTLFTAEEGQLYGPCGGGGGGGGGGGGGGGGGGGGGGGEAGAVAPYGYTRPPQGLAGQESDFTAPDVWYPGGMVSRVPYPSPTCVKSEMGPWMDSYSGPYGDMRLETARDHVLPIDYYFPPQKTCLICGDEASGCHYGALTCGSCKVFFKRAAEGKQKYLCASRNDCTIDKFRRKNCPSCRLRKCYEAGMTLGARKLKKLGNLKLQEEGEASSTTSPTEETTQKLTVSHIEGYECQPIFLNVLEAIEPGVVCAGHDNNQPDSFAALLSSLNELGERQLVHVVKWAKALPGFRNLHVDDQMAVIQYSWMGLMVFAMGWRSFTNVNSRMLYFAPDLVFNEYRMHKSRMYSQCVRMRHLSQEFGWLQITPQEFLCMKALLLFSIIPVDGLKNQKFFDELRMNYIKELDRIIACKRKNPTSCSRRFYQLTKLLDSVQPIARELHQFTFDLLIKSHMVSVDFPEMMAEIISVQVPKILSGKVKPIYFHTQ
Nature of the assay: AR immunofluorescence staining, high content imager, VCaP cells. Type of assay: cell-based. Particulars: for DC50: AR degradation by immunofluorescence; for Dmax: maximal AR degradation. The protocol:
AR Immunofluorescence Staining of Cells for the High Content Imager was performed as follows: Following treatment of the cells with compound (using the central 60 wells of a 96-well plate), media was removed by aspiration, followed by addition of 50 μL per well of 4% paraformaldehyde (PFA) in PBS supplemented with 2 mM MgCl2 and 2 mM CaCl2. Fixed cells were incubated at RT for 15 minutes. For particularly low adherence cell lines (e.g., VCaP), a 2× solution of 8% PFA was added directly to wells instead. Cells were washed once with 200 μL PBS/well. To permeabilize cells 50 μL/well of 0.1% Triton X-100 in PBS was added and incubated for 5 minutes. Cells were washed once with 200 μL PBSS/well. 100 μL/well of Licor Odyssey Blocking Buffer was added for 1 hour at 20° C. Wells were aspirated and AR antibody (1:1000 in Licor Odyssey blocking buffer; 50 μL/well; CST 5153s) was added. Plates were incubated overnight at 4° C. Plates were washed 3 times with 200 EL PBS/well. The appropriate secondary antibody was added (50 μL/well; diluted in Licor Odyssey blocking buffer) and incubated for 1 hour at RT in the dark as prepared below using Anti-rabbit FITC (1:5000; […]) and Phalloidin-Alexafluor 648 (1:500; […]). Cells were washed once with 200 μL PBS/well. 50 μL DAPI or Hoechst 33342 diluted 1:1000 in Licor Odyssey blocking buffer was added to the wells. Cells were washed 3 times with 200 μL PBS/well. The plates were covered with a clear plastic sealer and refrigerated in the dark until ready to analyze. The cells were analyzed using a Molecular Devices IXM high content imager and analyzed using Molecular Devices metaXpress software suite.

In the case of `COc1cc(O[C@H]2C(C)(C)[C@H](NC(=O)c3ccc(N4CCC(CN5CCN(c6ccc(C(=O)N[C@H]7CCC(=O)NC7=O)cn6)CC5)CC4)cc3)C2(C)C)ccc1C#N` [Compound 42, N-[(3S)-2,6-dioxopiperidin-3-yl]-6-(4-{[1-(4-{[(1r,3r)-3-(4-cyano-3-methoxyphenoxy)-2,2,4,4-tetramethylcyclobutyl]carbamoyl}phenyl)piperidin-4-yl]methyl}piperazin-1-yl)pyridine-3-carboxamide], the DC50 was below 1 nM and the Dmax was at least 70%.
In the same order, the values of `COc1cc(O[C@H]2C(C)(C)[C@H](NC(=O)c3ccc(N4CCO[C@H](CN(C(C)C)[C@H]5C[C@@H](Oc6ccc(C(=O)N[C@H]7CCC(=O)NC7=O)c(F)c6)C5)C4)cc3)C2(C)C)ccc1C#N` [Compound 43, 4-[(2R)-2-([isopropyl[(1r,3r)-3-(4-[[(3S)-2,6-dioxopiperidin-3-yl]carbamoyl]-3-fluorophenoxy)cyclobutyl]amino]methyl)morpholin-4-yl]-N-[(1r,3r)-3-(4-cyano-3-methoxyphenoxy)-2,2,4,4-tetramethylcyclobutyl]benzamide] are below 1 nM and at least 70%.
In the same order, the values of `COc1cc(O[C@H]2C(C)(C)[C@H](NC(=O)c3ccc(N4CCO[C@@H](CN(C(C)C)[C@H]5C[C@H](Oc6ccc(C(=O)N[C@H]7CCC(=O)NC7=O)c(F)c6)C5)C4)cc3)C2(C)C)ccc1C#N` [Compound 44, 4-[(2S)-2-([isopropyl[(1R,3R)-3-(4-[[(3S)-2,6-dioxopiperidin-3-yl]carbamoyl]-3-fluorophenoxy)cyclobutyl]amino]methyl)morpholin-4-yl]-N-[(1R,3R)-3-(4-cyano-3-methoxyphenoxy)-2,2,4,4-tetramethylcyclobutyl]benzamide] are below 1 nM and at least 70%.
`COCCN(C[C@@H]1CN(c2ccc(C(=O)N[C@H]3C(C)(C)[C@H](Oc4cc(C)c(C#N)c(C)c4)C3(C)C)cc2)CCO1)[C@H]1C[C@@H](Oc2ccc(C(=O)N[C@H]3CCC(=O)NC3=O)c(F)c2)C1` [Compound 45, 4-[(2R)-2-{[(2-methoxyethyl)[(1r,3r)-3-(4-{[(3S)-2,6-dioxopiperidin-3-yl]carbamoyl}-3-fluorophenoxy)cyclobutyl]amino]methyl}morpholin-4-yl]-N-[(1r,3r)-3-(4-cyano-3,5-dimethylphenoxy)-2,2,4,4-tetramethylcyclobutyl]benzamide] yielded a DC50 below 1 nM and a Dmax of at least 70%.
In the case of `Cc1cc(O[C@H]2C(C)(C)[C@H](NC(=O)c3ccc(N4CCC(CN5CCN(c6ccc(C(=O)N[C@H]7CCC(=O)NC7=O)cn6)CC5)CC4)cc3)C2(C)C)cc(C)c1C#N` [Compound 46], the DC50 was below 1 nM and the Dmax was at least 70%.
The corresponding values for `Cc1cc(O[C@H]2C(C)(C)[C@H](NC(=O)c3ccc(N4CCO[C@H](CN(C(C)C)[C@H]5C[C@@H](Oc6ccc(C(=O)N[C@H]7CCC(=O)NC7=O)c(F)c6)C5)C4)cc3)C2(C)C)cc(C)c1C#N` [Compound 47, 4-[(2R)-2-{[(propan-2-yl)[(1r,3r)-3-(4-{[(3S)-2,6-dioxopiperidin-3-yl]carbamoyl}-3-fluorophenoxy)cyclobutyl]amino]methyl}morpholin-4-yl]-N-[(1r,3r)-3-(4-cyano-3,5-dimethylphenoxy)-2,2,4,4-tetramethylcyclobutyl]benzamide] are below 1 nM and at least 70%.
In the same order, the values of `Cc1cc(O[C@H]2C(C)(C)[C@H](NC(=O)c3ccc(N4CCO[C@H](CN5CCN(c6ccc(C(=O)N[C@H]7CCC(=O)NC7=O)c(F)c6)CC5)C4)cc3)C2(C)C)cc(C)c1C#N` [Compound 48, N-[(3S)-2,6-dioxopiperidin-3-yl]-2-fluoro-4-(4-{[(2R)-4-(4-{[(1r,3r)-3-(4-cyano-3,5-dimethylphenoxy)-2,2,4,4-tetramethylcyclobutyl]carbamoyl}phenyl)morpholin-2-yl]methyl}piperazin-1-yl)benzamide] are below 1 nM and at least 70%.
In the same order, the values of `COCCN(C[C@H]1CN(c2ccc(C(=O)N[C@H]3C(C)(C)[C@@H](Oc4ccc(C#N)c(OC)c4)C3(C)C)cc2)CCO1)[C@H]1C[C@H](Oc2ccc(C(=O)N[C@@H]3CCC(=O)NC3=O)c(F)c2)C1` [Compound 50, 4-[(2S)-2-{[(2-methoxyethyl)[(1r,3r)-3-(4-{[(3R)-2,6-dioxopiperidin-3-yl]carbamoyl}-3-fluorophenoxy)cyclobutyl]amino]methyl}morpholin-4-yl]-N-[(1r,3r)-3-(4-cyano-3-methoxyphenoxy)-2,2,4,4-tetramethylcyclobutyl]benzamide] are below 1 nM and at least 70%.
With `COCCN(C[C@H]1CN(c2ccc(C(=O)N[C@H]3C(C)(C)[C@@H](Oc4cc(C)c(C#N)c(C)c4)C3(C)C)cc2)CCO1)[C@H]1C[C@H](Oc2ccc(C(=O)N[C@@H]3CCC(=O)NC3=O)c(F)c2)C1` [Compound 51, 4-[(2S)-2-{[(2-methoxyethyl)[(1r,3r)-3-(4-{[(3R)-2,6-dioxopiperidin-3-yl]carbamoyl}-3-fluorophenoxy)cyclobutyl]amino]methyl}morpholin-4-yl]-N-[(1r,3r)-3-(4-cyano-3,5-dimethylphenoxy)-2,2,4,4-tetramethylcyclobutyl]benzamide], the DC50 was below 1 nM and the Dmax is at least 70%.
`Cc1cc(O[C@H]2C(C)(C)[C@H](NC(=O)c3ccc(N4CCO[C@@H](CN5CCN(c6ccc(C(=O)N[C@H]7CCC(=O)NC7=O)c(F)c6)CC5)C4)cc3)C2(C)C)cc(C)c1C#N` [Compound 52, N-[(3S)-2,6-dioxopiperidin-3-yl]-2-fluoro-4-(4-{[(2S)-4-(4-{[(1r,3r)-3-(4-cyano-3,5-dimethylphenoxy)-2,2,4,4-tetramethylcyclobutyl]carbamoyl}phenyl)morpholin-2-yl]methyl}piperazin-1-yl)benzamide] gave a half-maximal degradation concentration (DC50) below 1 nM and a Dmax of at least 70%.
The corresponding values for `COc1cc(O[C@H]2C[C@H](N3CCOC4(CCN(c5ccc(C(=O)N[C@H]6C(C)(C)[C@H](Oc7cc(C)c(C#N)c(C)c7)C6(C)C)cc5)CC4)C3)C2)ccc1C(=O)NC1CCC(=O)NC1=O` (stereo partly drawn) [Compound 53, N-(2,6-dioxopiperidin-3-yl)-2-methoxy-4-[(1r,3r)-3-[9-(4-{[(1r,3r)-3-(4-cyano-3,5-dimethylphenoxy)-2,2,4,4-tetramethylcyclobutyl]carbamoyl}phenyl)-1-oxa-4,9-diazaspiro[5.5]undecan-4-yl]cyclobutoxy]benzamide] are below 1 nM and at least 70%.
The corresponding values for `COc1cc(O[C@H]2C(C)(C)[C@H](NC(=O)c3ccc(N4CCC(O[C@H]5C[C@H](Oc6ccc(C(=O)NC7CCC(=O)NC7=O)c(OC)c6)C5)CC4)cc3)C2(C)C)ccc1C#N` (stereo partly drawn) [Compound 54, N-[(1r,3r)-3-(4-cyano-3-methoxyphenoxy)-2,2,4,4-tetramethylcyclobutyl]-4-{4-[(1r,3r)-3-{4-[(2,6-dioxopiperidin-3-yl)carbamoyl]-3-methoxyphenoxy}cyclobutoxy]piperidin-1-yl}benzamide] are below 1 nM and at least 70%.

The DC50 is the concentration at which degradation of the target reaches its halfway point. Lower therefore signals a more potent degrader. The Dmax is the greatest extent of degradation seen. Read a high Dmax as a fuller loss of target.
